Read-outs that look alike come from different tables or passages of the source.
Experiments:
[1] = Pharmacokinetics of GT467 and GT511 in rats, plasma and brain (IV, IP, PO); type: in vivo, rat; settings: for AUC0-t: 0 to 24 hrs
Experimental: Pharmacokinetics (PK) study for GT951 was conducted at Melior Discovery Services (Exton, PA). Fifteen male CD-1 mice 23-50 g was used for the study and the mice were housed 3 per cage. PK studies for GT467 and GT511 were conducted at Piramal Pharma solutions under approved protocols (Pune, India). One hundred and sixty-eight male Wistar rats were used for the study and housed 4 per cage. All animals were maintained on a standard 12 h light cycle and given free access to water and standard rodent chow. Food and water were available ad libitum. Animals were not fasted for any portion of the study and animals were acclimated to the animal care facility for seven days prior to the start of the experiment. The holding room and procedure room temperature was 21-23° C. and humidity was at 40-45% during the experiment (within the normal range of the care facility). All procedures were completed according to Institutional Animal Care and Use Committee (IACUC) approved protocols for housing and for PK studies.
Rats were dosed with the drug and blood and brain samples were collected at 0.5, 1, 2, 4, 8 and 24 h time points. Blood was collected via the sub-lingual vein under anesthesia into tubes containing Na2EDTA as an anticoagulant. Plasma fraction was separated by centrifuging the samples at 10,000 rpm for 5 min and the plasma was transferred to a cryo tube and stored at −80 C. Animals were euthanized and the brain was rapidly removed on ice and weighed. Brain was homogenized in Milli Q water and the homogenate was stored at −80 C until further use. Bioanalysis of the samples was performed using the SCIEX QTRAP 5500 LCMS/MS system with Phenomenex synergy C18 column and carbamazepine as internal standard. A methanol extraction procedure was used to precipitate the proteins in the sample. In addition to the internal standards, drug free plasma and brain samples were prepared for calibration and quantification standards. All samples were within the detectable range of the standard curves. 50 μl of the sample was added to 200 μl of the working solution of the internal standard and centrifuged for 5 min at 10,000 rpm. 60 μl of the supernatant was added to 140 μl of water and mixed well prior to transferring them for quantitative analysis on LCMS.
Specifically, rats were administered with GT467 or GT511 intraperitoneally (IP), intravenously (IV) or orally (PO). The concentration of the administered compounds measured at various timepoints in the plasma are depicted in FIGS. 4A and 4B, the concentrations of the administered compounds measured at various timepoints in the brain are depicted in FIGS. 5A and 5B.
Furthermore, pharmacokinetic parameters such as the peak concentration (Cmax), the time to reach the peak concentration (Tmax), the area under curve from time 0 to T (i.e., 24 hrs) (AUC0-t), the area under curve from time 0 to infinite (AUC0-∞), the half-life (t1/2), the oral clearance (CL/F), the volume of distribution of drug observed (Vz_F_obs), and the percentage of bioavailability (% Bioavailability) were also measured or calculated.

[2] = system: PD rats (unilaterally lesioned rodent model of PD); assay: 5-Choice Serial Reaction Time Task (5CSRTT); type: in vivo, rat; settings: compared to saline
Source text: FIG. 12 lists the training schedule for 5CSRTT (5-Choice Serial Reaction Time Task) assay with criteria for success, in accordance with some embodiments.
FIG. 13: Schematic representation of the 5CSRTT assay, in accordance with some embodiments. Rats were trained to receive food reward for a correct nose poke response to a signal light (correct trial shown in arrow connecting 1 and 3). Incorrect trials (the arrows connecting 2/3 to 1) or omissions (the arrow connecting 4 to other boxes) results in time out indicated by darkness with no Cue lights. Trial resets with variable intertrial intervals. Nose pokes made during inter trial interval (ITI) are recorded as premature responses (PMR) that codes for impulsive behavior

[3] = system: Drosophila model of Huntington's disease; assay: Larval olfactory associative learning test; type: in vivo; settings: Elav x Htt larvae; 3.53 nM GT467, […] GT511
Experimental: FIG. 7A illustrates certain aspects of a larval olfactory associative learning used to test learning and memory. In FIG. 7A, larvae were trained with either a reinforcer solution containing sucrose (“LIN/SUC”) or a control of distilled water (“LIN/DW”). The trained larvae were then transferred to a dish having test odorant placed on one side and a control on the opposite side. […] The ΔRI (difference between LIN/SUC and LIN/DW performance scores) were then calculated for the high performers (FIG. 7B), low performers (FIG. 7C) and non-performers (FIG. 7D). […] Referring to FIG. 7A, Drosophila larvae were trained with either a reinforcer solution containing sucrose (“LIN/SUC”) or a control of distilled water (“LIN/DW”). The trained larvae were then transferred to a dish having test odorant placed on one side and a control on the opposite side. The ΔRI were then calculated for the high performers (FIG. 7B), low performers (FIG. 7C) and non-performers (FIG. 7D).

[4] = male, Wistar, rat plasma, IP 10 mg/kg
[5] = male, Wistar, rat plasma, IV 5 mg/kg
[6] = male, Wistar, rat plasma, PO 10 mg/kg

With COc1ccc(NC(=O)C(=O)NCC(c2ccccc2)N2CCN(C)CC2)cc1 (stereo not shown) [GT467, N1-(4-methoxyphenyl)-N2-(2-(4-methylpiperazin-1-yl)-2-phenylethyl)oxalamide] the AUC(0-inf) [1, 4] was 556 ng·h/mL, the Cmax [1, 4] was 262 ng/mL and the AUC0-t ([1]; male, Wistar, rat plasma, IP 10 mg/kg, read-out: AUC0-t) was 537 ng·h/mL. For the same compound, the CL/F ([1]; male, Wistar, rat plasma, IP 10 mg/kg, read-out: CL/F (converted)) was 302 mL/min/kg, the AUC(0-inf) [1, 5] was 321 ng·h/mL and the Cmax [1, 5] was 307 ng/mL. It also gave an AUC0-t ([1]; male, Wistar, rat plasma, IV 5 mg/kg, read-out: AUC0-t) of 316 ng·h/mL, an AUC(0-inf) [1, 6] of 798 ng·h/mL and a Cmax [1, 6] of 204 ng/mL. The AUC0-t ([1]; male, Wistar, rat plasma, PO 10 mg/kg, read-out: AUC0-t) was 507 ng·h/mL, the CL/F ([1]; male, Wistar, rat plasma, PO 10 mg/kg, read-out: CL/F (converted)) was 299 mL/min/kg and the “AUC0-∞” value ([1]; rat brain, IP 10 mg/kg) was 4442.19 ng·h/g. The Tmax ([1]; rat brain, IP 10 mg/kg) was 30 min, the t1/2 ([1]; rat brain, IP 10 mg/kg) was 97.2 min and the AUC0-t ([1]; rat brain, IP 10 mg/kg) was 4414.35 ng·h/g. The “AUC0-∞” value ([1]; rat brain, IV 5 mg/kg) was 2015.59 ng·h/g, the Tmax ([1]; rat brain, IV 5 mg/kg) was 30 min and the t1/2 ([1]; rat brain, IV 5 mg/kg) was 61.8 min. For the same compound, the AUC0-t ([1]; rat brain, IV 5 mg/kg) was 1959.70 ng·h/g, the “AUC0-∞” value ([1]; rat brain, PO 10 mg/kg) was 3080.18 ng·h/g and the Tmax ([1]; rat brain, PO 10 mg/kg) was 52.8 min. For the same compound, the t1/2 ([1]; rat brain, PO 10 mg/kg) was 109 min, the AUC0-t ([1]; rat brain, PO 10 mg/kg) was 2816.80 ng·h/g and the “% Bioavailability” value ([1]; rat plasma, IP 10 mg/kg) was 85.03%. For the same compound, the Tmax ([1]; rat plasma, IP 10 mg/kg) was 30 min, the Vz_F_obs ([1]; rat plasma, IP 10 mg/kg) was 26.470969 L/kg and the t1/2 ([1]; rat plasma, IP 10 mg/kg) was 60.96 min. The CL/F ([1]; rat plasma, IV 5 mg/kg) was 273.17875 mL/min/kg, the Tmax ([1]; rat plasma, IV 5 mg/kg) was 30 min and the Vz_F_obs ([1]; rat plasma, IV 5 mg/kg) was 16.170403 L/kg. For the same compound, the t1/2 ([1]; rat plasma, IV 5 mg/kg) was 39.1 min, the “% Bioavailability” value ([1]; rat plasma, PO 10 mg/kg) was 80.34% and the Tmax ([1]; rat plasma, PO 10 mg/kg) was 52.5 min. For the same compound, the Vz_F_obs ([1]; rat plasma, PO 10 mg/kg) was 95.358274 L/kg, the t1/2 ([1]; rat plasma, PO 10 mg/kg) was 285.8 min and the “Plasma concentration and brain concentration by route of administration” value ([1]; rats, IP, IV, PO) was “high plasma concentration and brain concentration”. The “Omissions (OM)” value [2] was “trend towards reducing omissions”, the “Percentage of correct choices (CR), cognitive performance” value [2] was “improves cognitive performance” and the “Premature responses (PMR), impulsivity” value [2] was “reduces impulsivity”. The “Olfactory learning performance (ΔRI)” value [3] was “improved significantly”.

Source: patent publication US20250092001A1, “NOVEL EXCITATORY AMINO ACID GLUTAMATE TRANSPORT MODULATORS AND METHODS USING THE SAME” (Drexel University, priority 2022, published 2025)
